Experimental findings from EP1120414A1, “DISUBSTITUTED MALEIMIDE COMPOUNDS AND MEDICINAL UTILIZATION THEREOF” (Japan Tobacco Inc., priority 1998, dated 2000) are described below.

Counter-ions that a name gives are not always drawn. Like-named read-outs stand apart in the source and are kept apart here. Some results are limits rather than exact numbers.

Assay [1] concerns the target T1, PKC α (Homo sapiens, UniProt P17252).
T1 construct: purchased CALBIOCHEM
The assay can be described thus: PKC enzyme assay (BIOTRAK Protein kinase C enzyme assay system, 32P-ATP phosphorylation of peptide […]). Type of assay: biochemical. As to the method: (§1) As the reagent for enzyme assay, BIOTRAK Protein kinase C enzyme assay system (hereinafter the system, Amersham), and as the PKC enzyme standard product, Protein Kinase C, Human Recombinant (CALBIOCHEM) were purchased and used in the assay. A substrate mixture was prepared by mixing calcium buffer (12 mM calcium acetate, 50 mM Tris/HCl pH 7.5, 0.05% (w/v) sodium azide), Lipid (0.3 mg/ml La-phosphatidyl-L-serine, […] phorbol 12-myristate 13-acetate, 50 mM Tris/HCl pH 7.5, 0.05% (w/v) sodium azide), peptide buffer (900 µM peptide […]), 50 mM Tris/HCl pH 7.5, 0.05% (w/v) sodium azide), DTT buffer (30 mM dithiothreitol, 50 mM Tris/HCl pH 7.5, 0.05% (w/v) sodium azide), and magnesium ATP buffer (1.2 mM ATP, […] pH 7.4, 72 mM magnesium chloride) all attached to the system in a ratio of 1:1:1:1:0.8 and adding [ y -32P]ATP (Amersham, cat. […] The PKC enzyme standard product was diluted with an assay buffer (10 mM Hepes pH 7.4, 0.01% Triton X-100) to a concentration of 400 ng/ml and used as the enzyme solution. The substrate mixture and a test substance (diluted to the final concentration of 1 nM-10 µM with dimethyl sulfoxide (DMSO)) were mixed at a ratio of 20:1. The enzyme solution was added in the amount equivalent to the substrate mixture and mixed, which was followed by incubation at 37°C for 15 minutes. The reaction terminator (300 mM orthophosphoric acid containing carmosine red) attached to the system was added in the amount equivalent to the substrate mixture to end the reaction, and the reaction mixture was spotted on a phosphocellulose paper (Whatman, P-81), washed twice with 75 mM orthophosphoric acid and assayed for radioactivity by BAS2000 (Fuji film).
(§2) The ratio of the radioactivity of the addition of the test substance to the addition of DMSO was determined, and IC50 was calculated from inhibition at each concentration.

The target of assay [2] is T2, PKC β II (Homo sapiens, UniProt P05771).
T2 construct: purchased CALBIOCHEM
T2 sequence (P05771 other isoform, or with tags, fused parts or gaps): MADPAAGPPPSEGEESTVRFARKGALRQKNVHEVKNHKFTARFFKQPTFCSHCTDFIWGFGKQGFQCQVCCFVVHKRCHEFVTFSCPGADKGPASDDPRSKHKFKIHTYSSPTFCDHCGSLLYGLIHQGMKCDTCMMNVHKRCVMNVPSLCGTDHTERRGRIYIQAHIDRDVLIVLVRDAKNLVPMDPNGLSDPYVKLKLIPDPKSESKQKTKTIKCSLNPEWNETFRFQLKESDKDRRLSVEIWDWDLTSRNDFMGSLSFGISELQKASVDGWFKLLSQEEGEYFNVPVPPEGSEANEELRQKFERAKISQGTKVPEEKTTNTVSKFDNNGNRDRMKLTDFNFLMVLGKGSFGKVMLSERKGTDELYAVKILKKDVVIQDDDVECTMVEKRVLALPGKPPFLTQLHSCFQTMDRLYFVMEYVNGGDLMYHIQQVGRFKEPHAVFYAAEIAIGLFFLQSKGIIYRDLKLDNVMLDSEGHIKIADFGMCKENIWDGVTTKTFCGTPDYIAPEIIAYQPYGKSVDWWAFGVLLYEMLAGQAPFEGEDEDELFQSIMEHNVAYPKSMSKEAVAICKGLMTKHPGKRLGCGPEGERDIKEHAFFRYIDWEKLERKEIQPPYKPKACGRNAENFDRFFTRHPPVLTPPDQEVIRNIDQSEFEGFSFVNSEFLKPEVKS
The description is as above. Type of assay: biochemical. To be noted: for Ratio α/β: IC50 PKC α / IC50 PKC β II.
Text: The method for determining the PKC inhibitory activity of the compound of the present invention is explained in the following. Inasmuch as PKCβII is present in greater number in intravascular cells than PKCβI, PKCβII was mainly used here to test the enzyme activity.
as §1, §2

Where [3] appears, read: read-out: Inhibition of PKC activity IC50 PKC α; Protein Kinase C, Human Recombinant; test substance 1 nM-10 µM; 37°C, 15 minutes.
The mark [4] stands for this setting: read-out: Inhibition of PKC activity IC50 PKC β II, Protein Kinase C, Human Recombinant, test substance 1 nM-10 µM, 37°C, 15 minutes.
The mark [5] stands for this setting: Protein Kinase C, Human Recombinant; test substance 1 nM-10 µM; 37°C, 15 minutes; read-out: Inhibition of PKC activity IC50 PKC α.
The mark [6] stands for this setting: Protein Kinase C, Human Recombinant, test substance 1 nM-10 µM, 37°C, 15 minutes, read-out: Inhibition of PKC activity IC50 PKC β II.

For the compound `O=C1NC(=O)C(c2c3n(c4ccccc24)CC[C@H](CN2CCSCC2)C3)=C1Nc1ccccc1` [Example 4-30], the IC50 (in general, the concentration that inhibits the measured activity by half) in assay [1] (setting [3]) was 654 nM; in assay [2] (setting [4]) it was 5 nM. The “Ratio α/β” value in assay [2] turned out to be 131.

`N=C(N)SCCCn1cc(C2=C(Nc3ccccc3)C(=O)NC2=O)c2ccccc21` [Example 2-43, 3-[1-(3-amidinothiopropyl)-1H-indol-3-yl]-4-(phenylamino)-1H-pyrrole-2,5-dione hydrobromide]: the values for the IC50 in assay [1] (setting [5]) and in assay [2] (setting [6]) were 27 nM and 2 nM, respectively.

Take `O=C1NC(=O)C(c2cn(CCCN3CCN(CCO)CC3)c3ccccc23)=C1Nc1ccccc1` [Example 2-32, 3-[1-{3-[4-(2-hydroxyethyl)piperazin-1-yl]propyl}-1H-indol-3-yl]-4-(phenylamino)-1H-pyrrole-2,5-dione]: the IC50 was 1080 nM in assay [1] (setting [5]) and 19 nM in assay [2] (setting [6]). In assay [2], the “Ratio α/β” value is given as 57.

`O=C1NC(=O)C(c2c3n(c4ccccc24)C[C@@H](CN2CCOCC2)CC3)=C1Nc1ccccc1` [Example 4-52]: the IC50 in assay [1] (setting [3]) is 3880 nM; in assay [2] (setting [4]), 57 nM. The “Ratio α/β” value in assay [2] was 68.

For `O=C1NC(=O)C(c2c3n(c4ccccc24)C[C@H](CN2CCOCC2)C3)=C1Nc1ccccc1` [Example 4-59], the figures for the IC50 in assay [1] (setting [3]) and in assay [2] (setting [4]) were 4990 nM and 46 nM, respectively. The “Ratio α/β” value in assay [2] stood at 109.

`O=C1NC(=O)C(c2c3n(c4ccccc24)CC(CN2CCSCC2)C3)=C1Nc1ccccc1` (stereo not drawn) [Example 4-28]: the IC50 is 3360 nM in assay [1] (setting [3]) and 25 nM in assay [2] (setting [4]). Further, in assay [2], the “Ratio α/β” value is 134.

For `Cc1cccc(NC2=C(c3cn(CCCO)c4ccccc34)C(=O)NC2=O)c1` [Example 2-2, 3-[1-(3-hydroxypropyl)-1H-indol-3-yl]-4-[(3-methylphenyl)amino]-1H-pyrrole-2,5-dione], the IC50 in assay [1] (setting [5]) stood at 2860 nM; in assay [2] (setting [6]) it was 41 nM. Also, in assay [2], the “Ratio α/β” value was found to be 70.

Turning to `Cc1nccn1CCn1cc(C2=C(Nc3ccccc3)C(=O)NC2=O)c2ccccc21` [Example 2-63, 3-[1-{2-(2-methyl-imidazol-1-yl)ethyl}-1H-indol-3-yl]-4-(phenylamino)-1H-pyrrole-2,5-dione], the IC50 in assay [1] (setting [5]) was found to be 7120 nM; in assay [2] (setting [6]), 247 nM. The “Ratio α/β” value in assay [2] is listed as 29.

With `O=C1NC(=O)C(c2c3n(c4ccccc24)C[C@H](CN2CCOCC2)CC3)=C1Nc1ccccc1` [Example 4-42], the IC50 in assay [1] (setting [3]) turned out to be 2660 nM; in assay [2] (setting [4]) it was 22 nM. Besides, in assay [2], the “Ratio α/β” value worked out at 121.

Consider `O=C1NC(=O)C(c2cn(CCCCO)c3ccccc23)=C1Nc1ccccc1` [Example 2-5, 3-[1-(4-hydroxybutyl)-1H-indol-3-yl]-4-(phenylamino)-1H-pyrrole-2,5-dione], for which the values for the IC50 in assay [1] (setting [5]) and in assay [2] (setting [6]) were 1830 nM and 30 nM, respectively. For the same compound, in assay [2], the “Ratio α/β” value is listed as 61.

With `O=C1NC(=O)C(c2c3n(c4ccccc24)CC(Cn2ccnc2)C3)=C1Nc1ccccc1` (stereo not drawn) [Example 4-37], the IC50 in assay [1] (setting [3]) stood at 592 nM; in assay [2] (setting [4]), 7 nM. Further, in assay [2], the “Ratio α/β” value came to 85.

As for `CN(C)C[C@H]1Cc2c(C3=C(Nc4ccc(F)cc4)C(=O)NC3=O)c3ccccc3n2C1` [Example 4-69], the IC50 was found to be 455 nM in assay [1] (setting [3]) and 6 nM in assay [2] (setting [4]). The “Ratio α/β” value in assay [2] is 76.

As for `CCN(C)C[C@H]1CCn2c(c(C3=C(Nc4ccccc4)C(=O)NC3=O)c3ccccc32)C1` [Example 4-24], the values for the IC50 in assay [1] (setting [3]) and in assay [2] (setting [4]) were 204 nM and 3 nM, respectively. Also, in assay [2], the “Ratio α/β” value is 68.

As for `O=C1NC(=O)C(c2c3n(c4ccccc24)CCC(CO)C3)=C1Nc1ccccc1` (stereo not drawn) [Example 4-1, 3-[8-hydroxymethyl-6,7,8,9-tetrahydropyrido[1,2-a]indol-10-yl]-4-(phenylamino)-1H-pyrrole-2,5-dione], the IC50 in assay [1] (setting [5]) was 852 nM; in assay [2] (setting [6]), 14 nM. The “Ratio α/β” value in assay [2] was 61.

As to `Cc1c(C2=C(Nc3ccccc3)C(=O)NC2=O)c2ccccc2n1CCCN(C)C` [Example 2-54, 3-[1-(3-dimethylaminopropyl)-2-methyl-1H-indol-3-yl]-4-(phenylamino)-1H-pyrrole-2,5-dione], the IC50 came out at 6670 nM in assay [1] (setting [5]) and 61 nM in assay [2] (setting [6]). The “Ratio α/β” value in assay [2] worked out at 109.

On to `O=C1NC(=O)C(c2cn(CCCCCN3CCC(O)CC3)c3ccccc23)=C1Nc1ccccc1` [Example 2-28, 3-[1-{5-(4-hydroxypiperidino)pentyl}-1H-indol-3-yl]-4-(phenylamino)-1H-pyrrole-2,5-dione], for which the IC50 in assay [1] (setting [5]) is 1080 nM; in assay [2] (setting [6]), 25 nM. The “Ratio α/β” value in assay [2] was 43.

With `NC(=O)N1CCC(Cn2cc(C3=C(Nc4ccccc4)C(=O)NC3=O)c3ccccc32)CC1` [Example 3-6, 3-[1-{(1-carbamoylpiperidin-4-yl)methyl}-1H-indol-3-yl]-4-(phenylamino)-1H-pyrrole-2,5-dione], the IC50 stood at 3660 nM in assay [1] (setting [5]) and 108 nM in assay [2] (setting [6]). The “Ratio α/β” value in assay [2] turned out to be 34.

For the compound `O=C1NC(=O)C(c2cn(CC(O)CO)c3ccccc23)=C1Nc1ccccc1` (stereo not drawn) [Example 2-44, 3-[1-(2,3-dihydroxypropyl)-1H-indol-3-yl]-4-(phenylamino)-1H-pyrrole-2,5-dione], the values for the IC50 in assay [1] (setting [5]) and in assay [2] (setting [6]) were 8160 nM and 261 nM, respectively. For the same compound, the “Ratio α/β” value in assay [2] is 31.

With `O=C1NC(=O)C(c2cn(CCCn3cccn3)c3ccccc23)=C1Nc1ccccc1` [Example 2-37, 3-(phenylamino)-4-[1-(3-pyrazol-1-ylpropyl)-1H-indol-3-yl]-1H-pyrrole-2,5-dione], the IC50 in assay [1] (setting [5]) is above 1000 nM; in assay [2] (setting [6]) it was 60 nM. Moreover, in assay [2], the “Ratio α/β” value is on record as 17.

Consider `CCNCC1Cc2c(C3=C(Nc4ccccc4)C(=O)NC3=O)c3ccccc3n2C1` (stereo not drawn) [Example 4-31], for which the IC50 in assay [1] (setting [3]) worked out at 186 nM; in assay [2] (setting [4]) it was 3 nM. Moreover, the “Ratio α/β” value in assay [2] is 64.

In the case of `CCN(C)C[C@H]1Cc2c(C3=C(Nc4ccccc4)C(=O)NC3=O)c3ccccc3n2C1` [Example 4-61], the values for the IC50 in assay [1] (setting [3]) and in assay [2] (setting [6]) were 481 nM and 5 nM, respectively. Besides, in assay [2], the “Ratio α/β” value is on record as 96.

Consider `CCN(CC)CCCn1cc(C2=C(Nc3ccccc3)C(=O)NC2=O)c2ccccc21` [Example 2-13, 3-[1-(3-diethylaminopropyl)-1H-indol-3-yl]-4-(phenylamino)-1H-pyrrole-2,5-dione], for which the IC50 was 1260 nM in assay [1] (setting [5]) and 21 nM in assay [2] (setting [6]). Moreover, the “Ratio α/β” value in assay [2] worked out at 60.

Consider `O=C1NC(=O)C(c2cn(CCCN3CCSCC3)c3ccccc23)=C1Nc1ccccc1` [Example 2-21, 3-(phenylamino)-4-[1-(3-thiomorpholinopropyl)-1H-indol-3-yl]-1H-pyrrole-2,5-dione], for which the IC50 amounted to 773 nM in assay [1] (setting [5]) and 17 nM in assay [2] (setting [6]). In addition, the “Ratio α/β” value in assay [2] worked out at 46.

For the compound `O=C1NC(=O)C(c2cn(CCCN3CCOCC3)c3ccccc23)=C1Nc1ccccc1` [Example 2-19, 3-[1-(3-morpholinopropyl)-1H-indol-3-yl]-4-(phenylamino)-1H-pyrrole-2,5-dione], the IC50 in assay [1] (setting [5]) stood at 1230 nM; in assay [2] (setting [6]), 17 nM. In assay [2], the “Ratio α/β” value is listed as 72.

Take `NC(=O)C1CCN(CCCn2cc(C3=C(Nc4ccccc4)C(=O)NC3=O)c3ccccc32)CC1` [Example 2-33, 3-[1-{3-(4-carbamoylpiperidino)propyl}-1H-indol-3-yl]-4-(phenylamino)-1H-pyrrole-2,5-dione]: the IC50 in assay [1] (setting [5]) is 676 nM; in assay [2] (setting [6]), 10 nM. The “Ratio α/β” value in assay [2] is 68.

For the compound `O=C1NC(=O)C(c2c3n(c4ccccc24)C[C@@H](CO)C3)=C1Nc1ccccc1` [Example 4-60], the IC50 is 458 nM in assay [1] (setting [3]) and 4 nM in assay [2] (setting [6]). Further, the “Ratio α/β” value in assay [2] turned out to be 115.

`O=C1NC(=O)C(c2cn(CCCN3CCCCCC3)c3ccccc23)=C1Nc1ccccc1` [Example 2-23, 3-[1-(3-azacycloheptan-1-ylpropyl)-1H-indol-3-yl]-4-(phenylamino)-1H-pyrrole-2,5-dione]: the IC50 in assay [2] came to 10 nM.
